Source: PubChem BioAssay (NCI)
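Method: 48-hour compound exposure of cells in 96-well plates, five concentrations, linear interpolation of endpoints. TGI marks complete inhibition of growth.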 Where a SMILES comes first, the peptide text is derived from it. The star is where a group is joined. Boc = CC(C)(C)OC(=O)*

Experiments:
Assay in all cases: NCI tumour cell line growth inhibition, 48 h
MOLT-4 leukemia = test system: MOLT-4 leukemia
CAKI-1 renal = test system: CAKI-1 renal
RXF 393 renal = test system: RXF 393 renal
UACC-257 melanoma = test system: UACC-257 melanoma
COLO 205 colon = test system: COLO 205 colon
MALME-3M melanoma = test system: MALME-3M melanoma
OVCAR-3 ovarian = test system: OVCAR-3 ovarian
HT29 colon = test system: HT29 colon
HL-60(TB) leukemia = test system: HL-60(TB) leukemia
OVCAR-4 ovarian = test system: OVCAR-4 ovarian
LOX IMVI melanoma = test system: LOX IMVI melanoma
HCC-2998 colon = test system: HCC-2998 colon
SK-OV-3 ovarian = test system: SK-OV-3 ovarian
SNB-75 CNS = test system: SNB-75 CNS
OVCAR-8 ovarian = test system: OVCAR-8 ovarian
SF-268 CNS = test system: SF-268 CNS
SR leukemia = test system: SR leukemia
SF-539 CNS = test system: SF-539 CNS
HS 578T breast = test system: HS 578T breast

SMILES	TGI (MOLT-4 leukemia) [µM]	TGI (CAKI-1 renal) [µM]	TGI (RXF 393 renal) [µM]	TGI (UACC-257 melanoma) [µM]	TGI (COLO 205 colon) [µM]	TGI (MALME-3M melanoma) [µM]	TGI (OVCAR-3 ovarian) [µM]	TGI (HT29 colon) [µM]	TGI (HL-60(TB) leukemia) [µM]	TGI (OVCAR-4 ovarian) [µM]	TGI (LOX IMVI melanoma) [µM]	TGI (HCC-2998 colon) [µM]	TGI (SK-OV-3 ovarian) [µM]	TGI (SNB-75 CNS) [µM]	TGI (OVCAR-8 ovarian) [µM]	TGI (SF-268 CNS) [µM]	TGI (SR leukemia) [µM]	TGI (SF-539 CNS) [µM]	TGI (HS 578T breast) [µM]
CC(=O)OC1CCN(C(=O)c2ccccc2)CC1CC1(c2cc3ccccc3[nH]2)OCCO1 (centres undefined)	75	> 100	> 100	> 100	> 100	> 100	> 100	> 100	53.6	> 100	> 100	> 100	> 100	> 100	> 100				
COc1c(Cl)c2c(c(OC)c1OC)-c1ccc(OC)c(=O)c(Cl)c1C(NC(C)=O)CC2 (centres undefined)	> 100	> 100		> 100	0.647	> 100	0.378		2.77	> 100	5.87	0.453		1.1		3.57	> 100	0.444	
C/C=C(C)/C=C/CC(C)CCC=C(C)C (centres undefined)	> 100	> 100	> 100	> 100	> 100		> 100	> 100	> 100	> 100	> 100		> 100	> 100	> 100		> 100	> 100	
Cc1ccc(CC(=O)Nc2ccc(NC(=O)/C=C/NC(=O)/C=C/c3ccc(-c4ccccc4)cc3)cc2C(=O)c2ccccc2)cc1	9.16	11.3	3.52	4.71	4.53	11.5	4.32	20.3	54.4	3.41	4.84	1.61	4.36	6.59	2.21	9.46		3.67	3.74
COc1cc(C2c3cc4c(cc3OC(NC3CCCCC3)C2C)OCO4)cc(OC)c1OC (centres undefined)	> 39	2.75	0.82	> 100	0.825		0.929	25.6	0.675	> 28.3	17.6	4.22	15.3	0.623	15.6	28.6		1.4	58.3
O=C(Nc1cc(C(=O)Nc2cccc(S(=O)(=O)O)c2)cc(C(=O)Nc2cccc(S(=O)(=O)O)c2)c1)c1cccc(C(=O)Nc2cc(C(=O)Nc3cccc(S(=O)(=O)O)c3)cc(C(=O)Nc3cccc(S(=O)(=O)O)c3)c2)c1	> 100	> 100	> 100	> 100	> 100	> 100	> 100	> 100	65.5	> 100	> 100	> 100	> 100	> 100	> 100	> 100		> 100	> 100
COC(=O)c1ccc(OCc2ccc3nc(OC)c(OC)nc3c2)cc1		> 100		> 100	> 100	> 100	> 100	> 100	> 100	> 100	> 100	> 100		> 100	> 100	> 100	> 100	> 100	
N#Cc1c2ccc([N+](=O)[O-])cc2c(=O)n2c1sc1ccc(C(F)(F)F)cc12	> 100	> 100	> 100	> 100	> 100	> 100	> 100	> 100		> 100	> 100		> 100	> 100	> 100	> 100		> 100	
O=C(/C=C(\O)c1ccc(Cl)cc1)C(=O)N=Nc1c(O)[nH]c2ccc(Br)cc12	4.85	> 100	> 100	> 100	> 100	> 100	95.9	> 100		> 100	> 100	> 100	> 100	> 100	> 100	> 100		> 100	> 100
Cc1nc(C)c(C(=O)NNC(=O)Cc2ccccc2)cc1C(=O)NNC(=O)Cc1ccccc1	> 100	> 100	> 100	> 100	> 100		> 100	> 100	> 100	> 100	> 100	> 100	> 100	> 100	> 100	> 100		> 100	> 100
CC(=O)Oc1ccc2c(c1)Oc1cc(C(C)=O)ccc1C21OC(=O)c2ccccc21 (centres undefined)	> 100	> 100	> 100	> 100	> 100	> 100	> 100	> 100	> 100	> 100	> 100	> 100	> 100	> 100	> 100	> 100			
CC(NC(=O)C(NC(=O)OC(C)(C)C)C(C)C)C(=O)N1CCCC1C(=O)NCC(=O)NC(C(=O)NCC(=O)O)C(C)C (centres undefined) (Boc-VAPGVG-OH; configuration not given here)	> 100	> 100		> 100	> 100	> 100	> 100	> 100	> 100	> 100	> 100	> 100	> 100	> 100	> 100	> 100	> 100	> 100	
C/C=C/c1c(O)c(=O)c2c(OC)cc(OC)c3c4c(OC)cc(OC)c5c(=O)c(O)c(/C=C/C)c(c1c23)c54	> 100	21.1		45.5	19.1	19.6	15.5	23.8		29.5	57.4	> 100	> 100	28.7	31.4	24.6	> 100	> 100	
O=[N+]([O-])C(Cl)C(Cl)C(Cl)=C(Cl)Cl (centres undefined)	47.8	33.2	33.7	41.9	34	32.9	> 56.7	36.4	44.1	31.9	28.8	> 56.7	> 100	> 72.7	> 75.2	> 70.5		> 70	67.5
O=S1(=O)OCCOS(=O)(=O)C1I	> 100	> 100		> 100	> 100	> 100	> 100	> 100	> 100	> 100		> 100	> 100	> 100	> 100	> 100	> 100	> 100	
C[C@H]1O[C@@H](c2c(O)ccc3ccccc23)C[C@@H](N(C)C)C1O (some centres undefined)			77.3	> 100	> 100	> 100	> 100	> 100	> 100	> 100	> 100	> 100	> 100	> 100	> 100	> 100		> 100	> 100
CC(C)CNC(=O)CCc1cccc2c1oc1c(CCN)cccc12	30.7	31.5	31.4	24.8	19.7	32	17.2	22.6	13.3	34	27.9	29.3	31.6	20.1	34.1	31.2	29	30.3	
CCOP(C)(=O)C(Cc1c[nH]c2ccccc12)C(=O)O (centres undefined)	> 100	> 100			> 100	> 100	> 100	> 100	> 100			> 100	> 100	> 100	> 100	> 100	> 100	> 100	
CCOc1ccc(N=NC2C(=O)N(C(=O)CC(=O)Nc3ccccc3OC)N=C2C)cc1 (centres undefined)	> 100	> 64.7	26.3	> 100	> 100	> 100	> 100	> 100	22.5	> 100	> 100	> 60.3	> 87.4	23.6	> 100	97		> 57.9	> 100
CCOC(=O)Cc1nnc2c(-c3ccccc3)nc3ccccc3n12	> 100		36.4	> 100	> 100	> 100	51.9	> 100	> 100	> 100	> 100	64.8	67.6			39.7	> 100	> 100	
COc1cc(/C=C2\C[C@H]3[C@@H]4CC=C5C[C@@H](O)CC[C@]5(C)[C@H]4CC[C@]3(C)[C@H]2O)cc(OC)c1OC	91.4	> 100	18.3	83.1	42.2	> 100	88	27.6	23	46.2	27.3	> 100	> 100	75.4	> 100	> 100		> 100	> 100
CC(=O)O[C@H]1C(=O)[C@@]2(C)[C@H]([C@H](OC(=O)c3ccccc3)[C@]3(O)C[C@H](OC(=O)[C@H](OC(=O)OCCC(O)CO)[C@@H](NC(=O)c4ccccc4)c4ccccc4)C(C)=C1C3(C)C)[C@]1(OC(C)=O)CO[C@@H]1C[C@@H]2O (some centres undefined)	24.9	62.9	18.5	23.3			14.5	> 100	< 0.01	> 100	22	0.0471	> 100	1.28	> 53	> 56.9		< 0.01	
CC(=N/NC(=S)N1CCCCC1)/C(=N\NC(=S)N1CCCCC1)c1ccccc1	> 100	4.22	2.82	4.52	4.06	3.96	3.34	4.71		3.61	25.9	4.48	3.49	3.59	6.24	3.37		10.6	4.82
C=C1C(=O)O[C@@H]2[C@H]1C[C@@H](O)[C@H](C)[C@@](O)(C(=O)/C=C/C)[C@H]2OC(=O)C(C)CC (some centres undefined)	> 36.9	2.91	5.36	> 39.4	3.33	4.42	10.4	5.21		22.8	12.3	> 67.4	> 100	51.6	6.4	> 54		15.8	6.34
C=CCCCC1CCCNC1=O (centres undefined)	> 100	> 100	> 100	> 100			> 100	> 100		> 100		> 100	> 100	> 100	> 100	> 100		> 100	> 100
OC(c1nc2ccccc2s1)(C(F)(F)F)C(F)(F)F	> 100	> 100	> 100	> 100	> 100	> 100	> 100	> 100	> 100	> 100	> 100	> 100	> 100	> 100	> 100	> 100		> 100	> 100
